pIC50: −log10 of the molar value. Where a name gives a salt, the structure may show the parent alone.
Experiments:
human MATE1 = biological target: T1, human MATE1 (Homo sapiens, UniProt Q96FL8); assay: Oxygen consumption rate (OCR) assay, HEK293 cells transfected with MATE1; conditions: for inhibition at 1000 µM: HEK293, read-out: Oxygen Consumption Rate (OCR), MATE 1, % Inhibition at 1000 μM test concentration
T1 sequence (Q96FL8 1-570): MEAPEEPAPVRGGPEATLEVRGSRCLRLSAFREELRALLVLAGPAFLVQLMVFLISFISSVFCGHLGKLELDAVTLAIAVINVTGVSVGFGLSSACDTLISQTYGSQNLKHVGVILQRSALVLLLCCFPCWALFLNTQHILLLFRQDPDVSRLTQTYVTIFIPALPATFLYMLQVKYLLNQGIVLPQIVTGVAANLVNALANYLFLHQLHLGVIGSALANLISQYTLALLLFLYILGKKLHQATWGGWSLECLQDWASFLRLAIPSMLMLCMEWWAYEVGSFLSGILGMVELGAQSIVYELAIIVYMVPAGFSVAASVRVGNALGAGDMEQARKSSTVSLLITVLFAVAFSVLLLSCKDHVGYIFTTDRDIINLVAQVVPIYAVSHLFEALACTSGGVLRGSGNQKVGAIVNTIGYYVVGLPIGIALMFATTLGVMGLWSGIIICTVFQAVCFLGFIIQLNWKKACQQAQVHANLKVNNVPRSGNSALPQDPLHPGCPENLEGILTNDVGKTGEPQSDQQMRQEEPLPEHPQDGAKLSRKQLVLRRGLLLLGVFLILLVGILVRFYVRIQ
Description: The compounds of the present invention are similarly tested in an oxygen consumption rate (OCR) assay to evaluate the functional activity of test compounds in cells.
(§1) In brief, the assay uses HEK293 cells stably transfected with the human OCT1, OCT2, OCT3, PMAT, or MATE1 transporters to determine a compound's relative transporter selectivity and its effect on the rate of oxygen consumption relative to control (Neo) cells. The MitoXpress Xtra oxygen-sensitive fluorophore is used to monitor oxygen consumption rates in the presence and absence of compound treatments. The analogs were tested at eight (8) different concentrations in triplicate to determine a relative IC50 value.
(§2) A summary description of the protocol is as follows:
(§3) Cells were incubated overnight to allow attachment. The outer columns (1 and 12) are not seeded with cells, as controls. The next day, plating medium was removed and replaced with 150 μL of assay medium (DMEM/F12 (PRF), 5% FBS, antibiotics) containing compound dilutions. A 3-fold serial dilution was prepared in the assay medium and transferred to the empty wells. The outer columns and column 11 received 150 μL of assay medium only. 10 μL of MitoXpress Xtra reagent was added to each test well, and 100 μL of pre-warmed mineral oil was overlayed in each well to create a seal. Dual read time-resolved fluorescence (BMG FluoStar Galaxy reader) was measured over 2 hours with measurements taken every 2 minutes. Excitation is 340 nm, Emission is 650 nm. For lifetime analysis, two measurements per well were taken: 1) delay of 30 μs, with a window of 30 μs; and 2) delay of 70 μs with a window of 30 μs. Background TRF values from A1-D1 were subtracted from all readings. A ratiometric analysis was performed to determine changes in the Lifetime fluorescence signal:Lifetime (μs) [T]=(D2−D1)/ln(W1/W2), where D is delay; W is fluorescence window value at each time point. Lifetime slopes were calculated using each Lifetime measurement over time. IC50 values were determined by plotting lifetime slope values vs. compound concentration.

control (Neo) cells = assay: Oxygen consumption rate (OCR) assay, control (Neo) HEK293 cells; format: cell-based; conditions: Homo sapiens; control (Neo) HEK293 cells; MitoXpress Xtra, 2 hours; read-out: Oxygen Consumption Rate (OCR) IC50, Neo
Description: Diabetologia 2011, 54 (12): 3101-3110, each incorporated by reference with regard to such testing. The compounds of the present invention are similarly tested in an oxygen consumption rate (OCR) assay to evaluate the functional activity of test compounds in cells.
as §1, §2
as §3, with “HEK293 cells transformed with human organic cation transporters were plated in collagen coated, 96-well black-walled microclear plates (Greiner-Bio 1, #655956) at 60,000 cells per well in growth medium (DMEM (LG), 10% FBS, 400 μg/ml G418). Cells” for “Cells”

`Cc1cc2c(CCNC(=N)NC(=N)N)c[nH]c2cc1F` [Ex 37, 1-[2-(6-fluoro-5-methyl-1H-indol-3-yl)ethyl]imidodicarbonimide diamide, trifluoroacetic acid salt] gave a pIC50 (human MATE1) of 4.15 and a pIC50 (control (Neo) cells) of 3.49.

`CN(C)C(=N)NC(=N)NCCc1c[nH]c2ccc(OC(F)(F)F)cc12` [Ex 33, 3-(2-(5-trifluoromethoxy-1H-indol-3-yl)ethyl)-1,1-dimethyl imidodicarbonimide diamide hydrochloride] gave a pIC50 (human MATE1) of 3.66 and a pIC50 (control (Neo) cells) of 3.81.

`Cn1cc(CCNC(=N)NC(=N)N)c2cccnc21` [Ex 39, 1-(2-(1-methyl-1H-pyrrolo[2,3-b]pyridin-3-yl)ethyl)imidodicarbonimide diamide, trifluoroacetic acid salt] was tested, and the pIC50 (human MATE1) was 3.77 and the pIC50 (control (Neo) cells) was 3.69.

`N=C(N)NC(=N)NCCc1c[nH]c2c(F)cc(F)cc12` [Ex 27, 1-[2-(5,7-difluoro-1H-indol-3-yl)ethyl]imidodicarbonimide diamide, trifluoroacetic acid salt] was tested, and the pIC50 (control (Neo) cells) was 3.54.

Compound `CN(CCc1c[nH]c2cc(F)ccc12)C(=N)NC(=N)N` [Ex 65, 1-methyl-1-[2-(6-fluoro-1H-indol-3-yl)ethyl]imidodicarbonimide diamide, trifluoroacetic acid salt] has a pIC50 (human MATE1) of 3.45 and a pIC50 (control (Neo) cells) of 2.08.

With `COc1ccc2[nH]c(C)c(CCNC(=N)NC(=N)N)c2c1` [Ex 19, 1-[2-(5-methoxy-2-methyl-1H-indol-3-yl)ethyl]imidodicarbonimide diamide, trifluoroacetic acid salt] the inhibition at 1000 µM (human MATE1) was 14% and the pIC50 (control (Neo) cells) was less than 2.52.

Compound `Cn1cc(CCNC(=N)NC(=N)N)c2ccc(F)cc21` [Ex 52, 1-[2-(6-fluoro-1-methyl-1H-indol-3-yl)ethyl]imidodicarbonimide diamide, trifluoroacetic acid salt] has a pIC50 (human MATE1) of 4.49 and a pIC50 (control (Neo) cells) of 3.41.

`CN(C)C(=N)NC(=N)NCCc1c[nH]c2ccc(F)cc12` [Ex 24, 3-(2-(5-fluoro-1H-indol-3-yl)ethyl)-1,1-dimethyl imidodicarbonimide diamide hydrochloride] was tested, and the pIC50 (human MATE1) was less than 2.00 and the pIC50 (control (Neo) cells) was 2.80.

`CCOc1ccc2[nH]cc(CCNC(=N)NC(=N)N)c2c1` [Ex 12, 1-[2-(5-ethoxy-1H-indol-3-yl)ethyl]imidodicarbonimide diamide trifluoroacetic acid salt] was tested, and the inhibition at 1000 µM (human MATE1) was -8% and the pIC50 (control (Neo) cells) was 2.94.

Work on `N=C(N)NC(=N)NCCc1c[nH]c2ccc(OCCO)cc12` [Ex 15, 1-(2-(5-(2-hydroxyethoxy)-1H-indol-3-yl)ethyl)imidodicarbonimide diamide trifluoroacetic acid salt] yielded an inhibition at 1000 µM (human MATE1) of -17% and a pIC50 (control (Neo) cells) of less than 2.00.

For `N=C(N)NC(=N)NCCc1c[nH]c2ccc(Cl)c(F)c12` [Ex 49, 1-[2-(5-chloro-4-fluoro-1H-indol-3-yl)ethyl]imidodicarbonimide diamide, trifluoroacetic acid salt], the pIC50 (human MATE1) was 4.19 and the pIC50 (control (Neo) cells) was 3.81.

`N=C(N)NC(=N)NCCc1c[nH]c2ccc(F)c(Cl)c12` [Ex 47, 1-[2-(4-chloro-5-fluoro-1H-indol-3-yl)ethyl]imidodicarbonimide diamide, trifluoroacetic acid salt] gave a pIC50 (human MATE1) of 4.66 and a pIC50 (control (Neo) cells) of 4.00.

In the case of `N=C(N)NC(=N)NCCc1c[nH]c2c(F)cc(Cl)cc12` [Ex 64, 1-[2-(5-chloro-7-fluoro-1H-indol-3-yl)ethyl]imidodicarbonimide diamide, trifluoroacetic acid salt], the pIC50 (human MATE1) was 3.43 and the pIC50 (control (Neo) cells) was 3.55.

For `CC(C)(CNC(=N)NC(=N)N)c1c[nH]c2cc(F)ccc12` [Ex 63, 1-[2-(6-fluoro-1H-indol-3-yl)-2-methylpropyl]imidodicarbonimide diamide, trifluoroacetic acid salt], the pIC50 (human MATE1) was 2.42 and the pIC50 (control (Neo) cells) was 2.76.

`N=C(N)NC(=N)NCCc1c[nH]c2cc(F)c(Cl)cc12` [Ex 58, 1-[2-(5-chloro-6-fluoro-1H-indol-3-yl)ethyl]imidodicarbonimide diamide, trifluoroacetic acid salt] was tested, and the pIC50 (human MATE1) was 4.46 and the pIC50 (control (Neo) cells) was 3.72.

With `Cc1[nH]c2ncccc2c1CCNC(=N)NC(=N)N` [Ex 44, 1-(2-(2-methyl-1H-pyrrolo[2,3-b]pyridin-3-yl)ethyl)imidodicarbonimide diamide, trifluoroacetic acid salt] the pIC50 (human MATE1) was 3.32 and the pIC50 (control (Neo) cells) was 2.78.

Compound `N=C(N)NC(=N)NCCc1c[nH]c2ccc(C(F)(F)F)cc12` [Ex 25, 1-[2-(5-trifluoromethyl-1H-indol-3-yl)ethyl]imidodicarbonimide diamide, trifluoroacetic acid salt] has an inhibition at 1000 µM (human MATE1) of 44% and a pIC50 (control (Neo) cells) of 4.29.

For `CN(C)C(=N)NC(=N)NCCc1c[nH]c2nc(F)ccc12` [Ex. 54, 3-(2-(6-fluoro-1H-pyrrolo[2,3-b]pyridin-3-yl)ethyl)-1,1-dimethyl imidodicarbonimide diamide trifluoroacetic acid salt], the pIC50 (human MATE1) was 2.31 and the pIC50 (control (Neo) cells) was 2.34.

Compound `N=C(N)NC(=N)NCCc1c[nH]c2ncccc12` [Ex 20, 1-(2-(1H-pyrrolo[2,3-b]pyridin-3-yl)ethyl)imidodicarbonimide diamide hydrochloride] has a pIC50 (control (Neo) cells) of 3.22.

For `Cc1cccc2[nH]cc(CCNC(=N)NC(=N)N)c12` [Ex 60, 1-[2-(4-methyl-1H-indol-3-yl)ethyl]imidodicarbonimide diamide, trifluoroacetic acid salt], the pIC50 (human MATE1) was 3.20 and the pIC50 (control (Neo) cells) was 2.78.

`CC(CNC(=N)NC(=N)N)c1c[nH]c2cc(F)ccc12` (stereo not drawn) [Ex 62, 1-[2-(6-fluoro-1H-indol-3-yl)propyl]imidodicarbonimide diamide, trifluoroacetic acid salt] was tested, and the pIC50 (human MATE1) was 2.46 and the pIC50 (control (Neo) cells) was 2.46.

Compound `Cc1[nH]c2ccc(F)cc2c1CCNC(=N)NC(=N)N` [Ex 29, 1-[2-(5-fluoro-2-methyl-1H-indol-3-yl)ethyl]imidodicarbonimide diamide, trifluoroacetic acid salt] has a pIC50 (control (Neo) cells) of less than 4.00.

`N=C(N)NC(=N)NCCc1c[nH]c2nccc(Cl)c12` [Ex 46, 1-(2-(4-chloro-1H-pyrrolo[2,3-b]pyridin-3-yl)ethyl)imidodicarbonimide diamide, trifluoroacetic acid salt] showed a pIC50 (human MATE1) of 3.47 and a pIC50 (control (Neo) cells) of 2.58.

`N=C(N)NC(=N)NCCc1c[nH]c2cc(F)c(F)cc12` [Ex 28, 1-[2-(5,6-difluoro-1H-indol-3-yl)ethyl]imidodicarbonimide diamide, trifluoroacetic acid salt] gave a pIC50 (control (Neo) cells) of 3.22.

Work on `CN(C)C(=N)NC(=N)NCCc1c[nH]c2ncccc12` [Ex 30, 1-(2-(1H-pyrrolo[2,3-b]pyridin-3-yl)ethyl)-1,1-dimethyl imidodicarbonimide diamide trifluoroacetic acid salt] yielded a pIC50 (control (Neo) cells) of 3.06.

Reference: patent US12371404B2, “Fused bicyclic alkylene linked imidodicarbonimidic diamides, methods for synthesis, and uses in therapy” (NovaTarg, Inc., priority 2016, dated 2025)
